Experimental data from ChEMBL document CHEMBL3045419, “Synthesis and Acaricidal Activity of N-(3-Pyridylmethyl)pyrazolecarboxamide Derivatives” (1997).

What was measured:
Type in all cases: functional
Tetranychus urticae [1] = assay: Acaricidal against Tetranychus urticae (two-spotted spider mite) assessed as mortality at 3.1 ppm
Tetranychus urticae [2] = assay: Acaricidal against Tetranychus urticae (two-spotted spider mite) assessed as mortality at 12.5 ppm
Tetranychus urticae [3] = assay: Acaricidal against Tetranychus urticae (two-spotted spider mite) assessed as mortality at 200 ppm
Tetranychus urticae [4] = assay: Acaricidal against Tetranychus urticae (two-spotted spider mite) assessed as mortality at 500 ppm
Tetranychus urticae [5] = assay: Acaricidal against Tetranychus urticae (two-spotted spider mite) assessed as mortality at 50 ppm

SMILES: CCc1nn(C)c(C(=O)NCc2cccnc2)c1Cl
- Activity (Tetranychus urticae [1]): 0%
- Activity (Tetranychus urticae [2]): 0%
- Activity (Tetranychus urticae [3]): 0%
- Activity (Tetranychus urticae [4]): 30%
- Activity (Tetranychus urticae [5]): 0%

SMILES: CCCc1ccc(CNC(=O)c2c(Cl)c(CC)nn2C)cn1
- Activity (Tetranychus urticae [1]): 0%
- Activity (Tetranychus urticae [2]): 0%
- Activity (Tetranychus urticae [3]): 80%
- Activity (Tetranychus urticae [4]): 100%
- Activity (Tetranychus urticae [5]): 30%

SMILES: CCc1nn(C)c(C(=O)NCc2ccc(C(C)C)nc2)c1Cl
- Activity (Tetranychus urticae [1]): 0%
- Activity (Tetranychus urticae [2]): 30%
- Activity (Tetranychus urticae [3]): 100%
- Activity (Tetranychus urticae [4]): 100%
- Activity (Tetranychus urticae [5]): 100%

SMILES: CCCCc1ccc(CNC(=O)c2c(Cl)c(CC)nn2C)cn1
- Activity (Tetranychus urticae [1]): 0%
- Activity (Tetranychus urticae [2]): 30%
- Activity (Tetranychus urticae [3]): 100%
- Activity (Tetranychus urticae [4]): 100%
- Activity (Tetranychus urticae [5]): 100%

SMILES: CCc1nn(C)c(C(=O)NCc2ccc(CC(C)C)nc2)c1Cl
- Activity (Tetranychus urticae [1]): 0%
- Activity (Tetranychus urticae [2]): 30%
- Activity (Tetranychus urticae [3]): 100%
- Activity (Tetranychus urticae [4]): 100%
- Activity (Tetranychus urticae [5]): 100%

SMILES: CCc1nn(C)c(C(=O)NCc2ccc(C(C)(C)C)nc2)c1Cl
- Activity (Tetranychus urticae [1]): 80%
- Activity (Tetranychus urticae [2]): 100%
- Activity (Tetranychus urticae [3]): 100%
- Activity (Tetranychus urticae [4]): 100%
- Activity (Tetranychus urticae [5]): 100%

SMILES: CCc1nn(C)c(C(=O)NCc2cnccc2C(C)(C)C)c1Cl
- Activity (Tetranychus urticae [1]): 100%
- Activity (Tetranychus urticae [2]): 100%
- Activity (Tetranychus urticae [3]): 100%
- Activity (Tetranychus urticae [4]): 100%
- Activity (Tetranychus urticae [5]): 100%

SMILES: CCCCCc1ccc(CNC(=O)c2c(Cl)c(CC)nn2C)cn1
- Activity (Tetranychus urticae [1]): 0%
- Activity (Tetranychus urticae [2]): 100%
- Activity (Tetranychus urticae [3]): 100%
- Activity (Tetranychus urticae [4]): 100%
- Activity (Tetranychus urticae [5]): 100%

SMILES: CCc1nn(C)c(C(=O)NCc2ccc(CC(C)(C)C)nc2)c1Cl
- Activity (Tetranychus urticae [1]): 30%
- Activity (Tetranychus urticae [2]): 100%
- Activity (Tetranychus urticae [3]): 100%
- Activity (Tetranychus urticae [4]): 100%
- Activity (Tetranychus urticae [5]): 100%

SMILES: CCCOc1ccc(CNC(=O)c2c(Cl)c(CC)nn2C)cn1
- Activity (Tetranychus urticae [1]): 0%
- Activity (Tetranychus urticae [2]): 0%
- Activity (Tetranychus urticae [3]): 30%
- Activity (Tetranychus urticae [4]): 80%
- Activity (Tetranychus urticae [5]): 30%

SMILES: CCc1nn(C)c(C(=O)NCc2ccc(OC(C)C)nc2)c1Cl
- Activity (Tetranychus urticae [1]): 0%
- Activity (Tetranychus urticae [2]): 30%
- Activity (Tetranychus urticae [3]): 100%
- Activity (Tetranychus urticae [4]): 100%
- Activity (Tetranychus urticae [5]): 80%

SMILES: CCc1nn(C)c(C(=O)NCc2ccc(OC(C)C(F)(F)F)nc2)c1Cl (stereo not given)
- Activity (Tetranychus urticae [1]): 30%
- Activity (Tetranychus urticae [2]): 100%
- Activity (Tetranychus urticae [3]): 100%
- Activity (Tetranychus urticae [4]): 100%
- Activity (Tetranychus urticae [5]): 100%

SMILES: CCc1nn(C)c(C(=O)NCc2ccc(OCC(F)(F)C(F)F)nc2)c1Cl
- Activity (Tetranychus urticae [1]): 30%
- Activity (Tetranychus urticae [2]): 80%
- Activity (Tetranychus urticae [3]): 100%
- Activity (Tetranychus urticae [4]): 100%
- Activity (Tetranychus urticae [5]): 100%

SMILES: CCc1nn(C)c(C(=O)NCc2ccc(OCC(F)(F)C(F)(F)F)nc2)c1Cl
- Activity (Tetranychus urticae [1]): 30%
- Activity (Tetranychus urticae [2]): 80%
- Activity (Tetranychus urticae [3]): 100%
- Activity (Tetranychus urticae [4]): 100%
- Activity (Tetranychus urticae [5]): 100%

SMILES: CCCCOc1ccc(CNC(=O)c2c(Cl)c(CC)nn2C)cn1
- Activity (Tetranychus urticae [1]): 30%
- Activity (Tetranychus urticae [2]): 30%
- Activity (Tetranychus urticae [3]): 100%
- Activity (Tetranychus urticae [4]): 100%
- Activity (Tetranychus urticae [5]): 80%

SMILES: CCc1nn(C)c(C(=O)NCc2ccc(OCCCC(F)(F)F)nc2)c1Cl
- Activity (Tetranychus urticae [1]): 30%
- Activity (Tetranychus urticae [2]): 80%
- Activity (Tetranychus urticae [3]): 100%
- Activity (Tetranychus urticae [4]): 100%
- Activity (Tetranychus urticae [5]): 100%

SMILES: CCc1nn(C)c(C(=O)NCc2ccc(OCC(F)(F)C(F)(F)C(F)(F)F)nc2)c1Cl
- Activity (Tetranychus urticae [1]): 80%
- Activity (Tetranychus urticae [2]): 100%
- Activity (Tetranychus urticae [3]): 100%
- Activity (Tetranychus urticae [4]): 100%
- Activity (Tetranychus urticae [5]): 100%
